{"source": "patent US20240351985A1", "about": "“NOVEL COMPOUND AND USE OF SAID COMPOUND” (APHEA.BIO NV, priority 2021, published 2024)", "key": {"F. graminearum spores": {"system": "F. graminearum spores", "format": "cell-based, Fusarium graminearum", "details": "for Halo Diameter / Opacity Grade: 24 hours"}, "Fusarium graminearum": {"system": "Fusarium graminearum", "experiment": "microbe, parasite or virus in culture", "format": "cell-based", "details": "22 h"}, "Puccinia striiformis": {"system": "Puccinia striiformis", "experiment": "Dose-response liquid-based assay against spores of Puccinia striiformis", "format": "cell-based", "details": "48 h"}, "Zymoseptoria tritici": {"system": "Zymoseptoria tritici", "experiment": "microbe, parasite or virus in culture", "format": "cell-based", "details": "120 h, incubation 5 d"}, "[1]": {"system": "Fusarium graminearum, Puccinia striiformis and Zymoseptoria tritici", "experiment": "organism not typed", "format": "cell-based"}, "[2]": {"details": "read-out: Absorbance (600 nm): AC50 value, Estimation"}, "[3]": {"details": "read-out: Absorbance (600 nm): AC50 value, Range"}, "[4]": {"details": "read-out: Fluorescence of resazurin dye (excitation 570 nm, emission 615 nm): AC50 value, Estimation"}, "[5]": {"details": "read-out: Fluorescence of resazurin dye (excitation 570 nm, emission 615 nm): AC50 value, Range"}}, "note": "Several values for one entry are separate records, joined by “and”; a condition that tells them apart may be missing. Equal entries are not always repeated. Where two headings read alike, the source gives them in different places."}
{"smiles": "C=C/C(C)=C/[C@@H](C)C(=O)CC(CC(CC(N)=O)CC(=O)O)SC", "note": "(stereo partly shown) [C17H27NO4S]", "values": [{"measurement": "Halo Diameter", "setting": "F. graminearum spores; 2 μL pipetted, 0.125 mg/mL", "value": "4.4 mm and 4.7 mm and 4.3 mm"}, {"measurement": "Opacity Grade", "setting": "F. graminearum spores; 2 μL pipetted, 0.125 mg/mL", "value": "E (‘E’ means 0-20% inhibition of the pathogen)"}, {"measurement": "Halo Diameter", "setting": "F. graminearum spores; 2 μL pipetted, 0.250 mg/mL", "value": "5.5 mm and 5.6 mm"}, {"measurement": "Opacity Grade", "setting": "F. graminearum spores; 2 μL pipetted, 0.250 mg/mL", "value": "D (‘D’ means 20-40% inhibition of the pathogen)"}, {"measurement": "Halo Diameter", "setting": "F. graminearum spores; 2 μL pipetted, 0.500 mg/mL", "value": "6.7 mm and 7.2 mm and 7.1 mm"}, {"measurement": "Opacity Grade", "setting": "F. graminearum spores; 2 μL pipetted, 0.500 mg/mL", "value": "B (‘B’ means 60-80% inhibition of the pathogen)"}, {"measurement": "Halo Diameter", "setting": "F. graminearum spores; 2 μL pipetted, 1 mg/mL", "value": "8.3 mm and 8.2 mm"}, {"measurement": "Opacity Grade", "setting": "F. graminearum spores; 2 μL pipetted, 1 mg/mL", "value": "A (‘A’ means 80-100% inhibition of the pathogen)"}, {"measurement": "Halo Diameter", "setting": "F. graminearum spores; 2 μL pipetted, 2 mg/mL", "value": "9.1 mm and 9.3 mm"}, {"measurement": "Opacity Grade", "setting": "F. graminearum spores; 2 μL pipetted, 2 mg/mL", "value": "A (‘A’ means 80-100% inhibition of the pathogen)"}, {"measurement": "Halo Diameter", "setting": "F. graminearum spores; 2 μL pipetted, 4 mg/mL", "value": "9.5 mm and 9.2 mm and 9.6 mm"}, {"measurement": "Opacity Grade", "setting": "F. graminearum spores; 2 μL pipetted, 4 mg/mL", "value": "A (‘A’ means 80-100% inhibition of the pathogen)"}, {"measurement": "Halo Diameter", "setting": "F. graminearum spores; 2 μL pipetted, 8 mg/mL", "value": "9.8 mm and 9.2 mm and 9.7 mm"}, {"measurement": "Opacity Grade", "setting": "F. graminearum spores; 2 μL pipetted, 8 mg/mL", "value": "A (‘A’ means 80-100% inhibition of the pathogen)"}, {"measurement": "Activity against F. graminearum spores", "setting": "F. graminearum spores; all concentrations tested (8 mg/mL to 125 μg/mL)", "value": "active"}, {"measurement": "AC50", "setting": "Fusarium graminearum; [2]", "value": 8.9, "unit": "µg/mL"}, {"measurement": "AC50", "setting": "Fusarium graminearum; [3]", "value": "7.54 to 10.5", "unit": "µg/mL"}, {"measurement": "AC50", "setting": "Fusarium graminearum; [4]", "value": 13.2, "unit": "µg/mL"}, {"measurement": "AC50", "setting": "Fusarium graminearum; [5]", "value": "11.8 to 14.8", "unit": "µg/mL"}, {"measurement": "AC50", "setting": "Puccinia striiformis; [4]", "value": 12.8, "unit": "µg/mL"}, {"measurement": "AC50", "setting": "Puccinia striiformis; [5]", "value": "11.7 to 14", "unit": "µg/mL"}, {"measurement": "AC50", "setting": "Zymoseptoria tritici; [2]", "value": 16, "unit": "µg/mL"}, {"measurement": "AC50", "setting": "Zymoseptoria tritici; [3]", "value": "14.9 to 17.2", "unit": "µg/mL"}, {"measurement": "AC50", "setting": "Zymoseptoria tritici; [4]", "value": 15.9, "unit": "µg/mL"}, {"measurement": "AC50", "setting": "Zymoseptoria tritici; [5]", "value": "14.8 to 17.1", "unit": "µg/mL"}, {"measurement": "AC50", "setting": "[1]; read-out: Active concentrations (AC50 ranges) for hyphal growth in the wells", "value": "7.54 to 17.2", "unit": "µg/mL"}, {"measurement": "AC50", "setting": "[1]; read-out: Active concentrations (AC50 ranges) for metabolic activity", "value": "11.7 to 17.1", "unit": "µg/mL"}]}
{"smiles": "C[C@@H]1[C@H](O)[C@@H](C)/C=C/C=C/C=C/C=C/C=C/C=C/C=C/[C@H](O[C@@H]2O[C@H](C)[C@@H](O)[C@H](N)[C@@H]2O)C[C@@H]2O[C@](O)(C[C@@H](O)C[C@@H](O)[C@H](O)CC[C@@H](O)C[C@@H](O)CC(=O)O[C@H]1C)C[C@H](O)[C@H]2C(=O)O", "note": "[Amphotericin B, reference compound]", "values": [{"measurement": "Halo Diameter", "setting": "F. graminearum spores; 10 μL pipetted, 0.125 mg/mL", "value": 9.3, "unit": "mm"}, {"measurement": "Opacity Grade", "setting": "F. graminearum spores; 10 μL pipetted, 0.125 mg/mL", "value": "B (‘B’ means 60-80% inhibition of the pathogen)"}, {"measurement": "Halo Diameter", "setting": "F. graminearum spores; 10 μL pipetted, 0.15625 mg/mL", "value": 7.1, "unit": "mm"}, {"measurement": "Opacity Grade", "setting": "F. graminearum spores; 10 μL pipetted, 0.15625 mg/mL", "value": "C (‘C’ means 40-60% inhibition of the pathogen)"}, {"measurement": "Halo Diameter", "setting": "F. graminearum spores; 10 μL pipetted, 0.250 mg/mL", "value": "9.2 mm and 9 mm and 9.3 mm and 8.7 mm"}, {"measurement": "Opacity Grade", "setting": "F. graminearum spores; 10 μL pipetted, 0.250 mg/mL", "value": "A (‘A’ means 80-100% inhibition of the pathogen)"}, {"measurement": "Halo Diameter", "setting": "F. graminearum spores; 10 μL pipetted, 0.3125 mg/mL", "value": 7.7, "unit": "mm"}, {"measurement": "Opacity Grade", "setting": "F. graminearum spores; 10 μL pipetted, 0.3125 mg/mL", "value": "C (‘C’ means 40-60% inhibition of the pathogen)"}, {"measurement": "Halo Diameter", "setting": "F. graminearum spores; 10 μL pipetted, 0.625 mg/mL", "value": 9.1, "unit": "mm"}, {"measurement": "Opacity Grade", "setting": "F. graminearum spores; 10 μL pipetted, 0.625 mg/mL", "value": "B (‘B’ means 60-80% inhibition of the pathogen)"}]}
